The structures appear in SMILES notation.

As usually defined, the IC50 is the point on the concentration scale where inhibition reaches its midpoint. Low readings indicate inhibition by little substance, high ones a need for much substance.

One assay concerns the target T1, Na^+ /H^+ exchange (Rattus norvegicus, UniProt P26431).
T1 construct: A supernatant was separated to prepare platelet-rich plasma; endogenous in cells; host or cells: platelets in platelet-rich plasma from male Wistar rats (abdominal aorta blood)
Put plainly: Na^+ /H^+ Exchange inhibitory activity (sodium propionate-induced swelling of platelets). Format: cell-based, rat (male Wistar rats). The note with it: rat platelet-rich plasma, 37° C. The method, then:
The compounds of the present invention were assessed for their Na^+ /H^+ exchange inhibitory activity based on an activity to inhibit sodium propionate-induced swelling of platelets in accordance with the method of Rosskoph et al. [Journal of Hypertension, 9, 231-238 (1991)].
First, platelet-rich plasma was prepared in accordance with the method of Mammen et al. [Diabetes Research and Clinical Practice, 9(3), 265-272 (1990)]. Briefly, male Wistar rats weighing 190 to 420 g were abdominally operated under anesthesia with ether and blood was taken from the abdominal aorta. For inhibiting blood coagulation, ACD solution (a mixture of 65 mM citric acid, 85 mM sodium citrate, 11 mM dextrose) was added to blood and this treated blood was centrifuged at 90× g for 10 minutes. A supernatant was separated to prepare platelet-rich plasma.
Then, a solution of the test compounds in dimethylsulfoxide was added to 140 mM sodium propionate buffer solution. To this mixture was added the platelet-rich plasma prepared above and a decrease in optical density was recorded with the passage of time at 37° C. using a platelet aggregometer (turbidimeter) and a X-Y recorder to calculate a decrease rate in optical density after mixing with platelet-rich plasma [decrease rate in optical density in the presence of the test compounds (D)]. On the other hand, the solvent dimethylsulfoxide alone was used instead of the solution of the test compounds and the decrease in optical density was recorded in the similar manner to calculate a decrease rate in optical density [control (C)]. A swelling inhibitory rate (%) was calculated using the following formula:
Swelling inhibitory rate (%)=(1-D/C)×100

The test system of assay [1] is myocardial infarction lesion. Put plainly: Activity to reduce myocardial infarction lesion (rat acute myocardial infarction model). The class given is in vivo, rat (male Sprague-Dawley rats). The note with it: Test 2 (Table 7); 1 mg/kg, femoral vein; control 45.2 ± 4.1; **: p < 0.01. The method, then:
Using a rat acute myocardial infarction model, the compounds of the present invention were assessed for their activity to reduce myocardial infarction lesion in accordance with the method of Petty et al. [European Journal of Pharmacology, 192, 383-388 (1991)]. Male Sprague-Dawley rats (weighing 320 to 430 g) were anesthetized by intraperitoneal administration of sodium pentobarbital (50 mg/kg). Under anesthesia, the rats were cannulated via trachea and the cannula was linked to a respirator and then the body temperature was maintained at 37° C. The chest of the rats were opened at the left fifth intercostal space and the pericardium was cut open to reveal the heart. Then a solution of the test compound in a mixed solvent of polyethylene glycol 400, ethanol and a physiological saline [3:3:14 (v/v)] was administered into the femoral vein. Ten minutes after the administration of the compound, the origin of the left coronary artery was occluded. After occlusion for 30 minutes, reperfusion was carried out for 2 hours. After reperfusion, the heart was removed and the origin of the left coronary artery was ligated again. The heart was cannulated via the aorta and a 0.025% solution of Evans blue was perfused using a syringe pump to distinguish an ischemic region (not stained with Evans blue) and a non-ischemic region (stained with Evans blue). The ischemic region was incubated in a 0.1% triphenyltetrazolium chloride (TTC) solution at 37° C. for 30 minutes to distinguish a TTC-stained region and a non-stained region (infarction region).

The subject of the next assay is reperfusion arrhythmia. Briefly: Inhibitory activity against reperfusion arrhythmia (rat acute myocardial infarction model). The class given is in vivo, rat (male Sprague-Dawley rats). To be noted: femoral vein. The method, then:
Using a rat acute myocardial infarction model, the compounds of the present invention were assessed for their inhibitory activity against reperfusion arrhythmia in accordance with the method of […] al. [European Journal of Pharmacology, 194, 7-10 (1991)]. Male Sprague-Dawley rats (weighing 310 to 490 g) were anesthetized by intraperitoneal administration of sodium pentobarbital (50 mg/kg). Under anesthesia, the rats were cannulated via trachea and the cannula was linked to a respirator. An electrocardiogram (the lead II) was obtained from electrodes attached to the limbs using bioelectric amplifier while maintaining the body temperature at 37° C. The chest of the rats were opened at the left fifth intercostal space and the pericardium was cut open to reveal the heart. Then a solution of the test compound in a mixed solvent of polyethylene glycol 400, ethanol and a physiological saline [3:3:14 (v/v)] was administered into the femoral vein. Ten minutes after the administration of the compound, the origin of the left coronary artery was occluded. After occlusion for 5 minutes, reperfusion was carried out for 10 minutes and a duration (second) of a ventricular fibrillation after reperfusion was measured from the electrocardiogram (mean±standard error, n=3 to 10). The ventricular fibrillation was assessed in accordance with the guideline of The Lambeth Convention [Cardiovascular Research, 22, 447-455 (1988)]. On the other hand, the mixed solvent of polyethylene glycol 400, ethanol and a physiological saline [3:3:14 (v/v)] alone was used as a control and a duration (second) of the ventricular fibrillation was measured in a similar manner. Using male Sprague-Dawley rats weighing 310 to 440 g, the duration (second) of the ventricular fibrillation was measured in the same manner as in Test 1 (n=4 to 10). Using male Sprague-Dawley rats weighing 310 to 400 g, the duration (second) of the ventricular fibrillation was measured in the same manner as in Test 1 (n=4 to 6).

[2] abbreviates: Test 3 (Table 5), 0.1 mg/kg, control 171.0 ± 5.8, Example 19 *: p < 0.05, Example 21 **: p < 0.01.
Setting [3] is: Test 2 (Table 4), 0.1 mg/kg, control 146.1 ± 5.9, **: p < 0.01.

T1 sequence (P26431 whole entry): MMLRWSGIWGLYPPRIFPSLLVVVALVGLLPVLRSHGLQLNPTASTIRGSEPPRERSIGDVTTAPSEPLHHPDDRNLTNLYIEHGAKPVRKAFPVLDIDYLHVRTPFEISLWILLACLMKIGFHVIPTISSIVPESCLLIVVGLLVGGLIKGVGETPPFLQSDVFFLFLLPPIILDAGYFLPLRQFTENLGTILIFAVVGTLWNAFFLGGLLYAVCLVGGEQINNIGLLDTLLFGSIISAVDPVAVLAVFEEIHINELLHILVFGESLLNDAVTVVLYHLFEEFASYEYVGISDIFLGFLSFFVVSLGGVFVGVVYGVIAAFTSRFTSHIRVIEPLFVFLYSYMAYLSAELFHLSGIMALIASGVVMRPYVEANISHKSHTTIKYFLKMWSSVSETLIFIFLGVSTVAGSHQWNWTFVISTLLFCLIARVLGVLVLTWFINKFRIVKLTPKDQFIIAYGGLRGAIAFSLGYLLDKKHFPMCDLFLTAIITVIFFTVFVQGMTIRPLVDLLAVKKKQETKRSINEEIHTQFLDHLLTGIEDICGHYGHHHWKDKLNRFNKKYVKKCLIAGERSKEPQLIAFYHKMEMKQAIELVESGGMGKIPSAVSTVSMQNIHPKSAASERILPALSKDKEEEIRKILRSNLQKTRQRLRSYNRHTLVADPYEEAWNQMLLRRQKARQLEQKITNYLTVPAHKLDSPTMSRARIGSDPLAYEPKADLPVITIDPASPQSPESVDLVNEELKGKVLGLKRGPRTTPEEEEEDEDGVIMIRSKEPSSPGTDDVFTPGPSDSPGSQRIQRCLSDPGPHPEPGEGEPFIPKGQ

Regarding `CC(C)N1C(=O)COc2cc(C(=O)NC(=N)N)ccc21` [Example 3, N-amidino-4-(2-propyl)-3-oxo-3,4-dihydro-2H-1,4-benzoxazine-7-carboxamide], 170 nM corresponded to half-maximal inhibition at Na^+ /H^+ exchange (IC50).

For the compound `CC[C@H]1Oc2cc(C(=O)NC(=N)N)ccc2N(C(C)C)C1=O.CS(=O)(=O)O` [Example 19, (R)-N-Amidino-2-ethyl-4-(2-propyl)-3-oxo-3,4-dihydro-2H-1,4-benzoxazine-7-carboxamide methanesulfonate], the “Infarction region/ischemic region (%) (mean ± standard error)” value in assay [1] amounted to 20.7 ± 5.2%. The half-inhibitory concentration (IC50) on Na^+ /H^+ exchange stood at 44 nM. Further, the “Duration (second) of ventricular fibrillation (mean ± standard error)” value (from here on “Duration (second) … (mean ± standard error)”) was 116.8 ± 40.2 s in the assay on reperfusion arrhythmia (Test 3 (Table 5), 0.01 mg/kg, control 171.0 ± 5.8); 36.5 ± 32.2 s in the assay with reperfusion arrhythmia (setting [2]); 0.0 ± 0.0 s in the assay on reperfusion arrhythmia (Test 3 (Table 5), 1 mg/kg, control 171.0 ± 5.8, *: p < 0.05).

`N=C(N)NC(=O)c1nc(Cl)c(N)nc1N` [Amiloride, amiloride, reference compound] registered a half-maximal inhibitory concentration (IC50) on Na^+ /H^+ exchange of 13000 nM.

Take `CC(C)N1C(=O)C(C)(C)Oc2ccc(C(=O)NC(=N)N)cc21.Cl` [Example 5, N-amidino-2,2-dimethyl-4-(2-propyl)-3-oxo-3,4-dihydro-2H-1,4-benzoxazine-6-carboxamide hydrochloride]: it took 120 nM to reach half-maximal inhibition against Na^+ /H^+ exchange (IC50). The “Duration (second) … (mean ± standard error)” value with reperfusion arrhythmia (setting [3]) was found to be 80.2 ± 27.8 s.

The compound `CC[C@@H]1Oc2cc(C(=O)NC(=N)N)ccc2N(CC)C1=O` [Example 16, (S)-N-amidino-2,4-diethyl-3-oxo-3,4-dihydro-2H-1,4-benzoxazine-7-carboxamide] returned a 50% inhibitory concentration (IC50) at Na^+ /H^+ exchange of 45 nM.

Compound `CC[C@@H]1Oc2cc(C(=O)NC(=N)N)ccc2N(CC)C1=O.CS(=O)(=O)O` [Example 21, (S)-N-amidino-2,4-diethyl-3-oxo-3,4-dihydro-2H-1,4-benzoxazine-7-carboxamide methanesulfonate] displayed an IC50 against Na^+ /H^+ exchange of 89 nM. In the assay on reperfusion arrhythmia (setting [2]), the “Duration (second) … (mean ± standard error)” value came out at 69.0 ± 31.1 s.

Regarding `CC(C)N1C(=O)C(C)(C)Oc2cc(C(=O)N=C(N)N)ccc21` [Example 1, N-amidino-2,2-dimethyl-4-(2-propyl)-3-oxo-3,4-dihydro-2H-1,4-benzoxazine-7-carboxamide], the IC50 at Na^+ /H^+ exchange came to 200 nM.

For the compound `CC[C@H]1Oc2cc(C(=O)NC(=N)N)ccc2N(C(C)C)C1=O.Cl` [Example 18, (R)-N-Amidino-2-ethyl-4-(2-propyl)-3-oxo-3,4-dihydro-2H-1,4-benzoxazine-7-carboxamide hydrochloride], the “Infarction region/ischemic region (%) (mean ± standard error)” value in assay [1] stood at 21.7 ± 5.5%. The IC50 at Na^+ /H^+ exchange was 38 nM. In addition, the “Duration (second) … (mean ± standard error)” value with reperfusion arrhythmia (Test 2 (Table 4), 0.01 mg/kg, control 146.1 ± 5.9) is 75.5 ± 29.2 s; in the assay on reperfusion arrhythmia (setting [3]), 31.4 ± 20.6 s; in the assay with reperfusion arrhythmia (Test 2 (Table 4), 1 mg/kg, control 146.1 ± 5.9, **: p < 0.01), 0.0 ± 0.0 s.

For the compound `CC[C@H]1Oc2cc(C(=O)NC(=N)N)ccc2N(CC)C1=O` [Example 17, (R)-N-amidino-2,4-diethyl-3-oxo-3,4-dihydro-2H-1,4-benzoxazine-7-carboxamide], inhibition at Na^+ /H^+ exchange was half-maximal at 71 nM (IC50).

Consider `CC1Oc2cc(C(=O)NC(=N)N)ccc2N(C2CCCC2)C1=O` (stereo not shown) [Example 10, N-amidino-4-cyclopentyl-2-methyl-3-oxo-3,4-dihydro-2H-1,4-benzoxazine-7-carboxamide], for which the IC50 against Na^+ /H^+ exchange turned out to be 62 nM. The IC50 values of the last two compounds are within 1.5-fold of each other.

For the compound `CCN1C(=O)C(C)Oc2cc(C(=O)NC(=N)N)ccc21` (stereo not shown) [Example 4, N-amidino-4-ethyl-2-methyl-3-oxo-3,4-dihydro-2H-1,4-benzoxazine-7-carboxamide], on Na^+ /H^+ exchange, it took 160 nM to reach half-maximal inhibition (IC50).

`CCN1C(=O)C(C)(C)Oc2ccc(C(=O)NC(=N)N)cc21` [Example 7, N-amidino-2,2-dimethyl-4-ethyl-3-oxo-3,4-dihydro-2H-1,4-benzoxazine-6-carboxamide]: 380 nM corresponded to half-maximal inhibition at Na^+ /H^+ exchange (IC50).

As for `CC1Oc2cc(C(=O)NC(=N)N)ccc2NC1=O` (stereo not shown) [Example 8, N-amidino-2-methyl-3-oxo-3,4-dihydro-2H-1,4-benzoxazine-7-carboxamide], at Na^+ /H^+ exchange, half-maximal inhibition (IC50) required 810 nM.

`CC[C@@H]1Oc2cc(C(=O)NC(=N)N)ccc2N(CC)C1=O.Cl` [Example 20, (S)-N-amidino-2,4-diethyl-3-oxo-3,4-dihydro-2H-1,4-benzoxazine-7-carboxamide hydrochloride] returned a concentration for half-maximal inhibition (IC50) at Na^+ /H^+ exchange of 49 nM. Besides, the “Duration (second) … (mean ± standard error)” value in the assay on reperfusion arrhythmia (setting [3]) is 27.2 ± 27.2 s.

At Na^+ /H^+ exchange, `CCN1C(=O)COc2cc(C(=O)NC(=N)N)ccc21` [Example 12, N-amidino-4-ethyl-3-oxo-3,4-dihydro-2H-1,4-benzoxazine-7-carboxamide] had a half-inhibitory concentration (IC50) of 360 nM.

In turn, `CCC1Oc2cc(C(=O)NC(=N)N)ccc2N(CC)C1=O` (stereo not shown) [Example 13, N-amidino-2,4-diethyl-3-oxo-3,4-dihydro-2H-1,4-benzoxazine-7-carboxamide] showed a concentration for half-maximal inhibition (IC50) against Na^+ /H^+ exchange of 83 nM.

Take `CC[C@@H]1Oc2cc(C(=O)NC(=N)N)ccc2N(C(C)C)C1=O` [Example 14, (S)-N-Amidino-2-ethyl-4-(2-propyl)-3-oxo-3,4-dihydro-2H-1,4-benzoxazine-7-carboxamide]: at Na^+ /H^+ exchange, the concentration for half-maximal inhibition (IC50) stood at 73 nM.

On to `CCC1Oc2cc(C(=O)NC(=N)N)ccc2N(C(C)C)C1=O` (stereo not shown) [Example 9, N-amidino-2-ethyl-4-(2-propyl)-3-oxo-3,4-dihydro-2H-1,4-benzoxazine-7-carboxamide], for which half-maximal inhibition against Na^+ /H^+ exchange (IC50) required 34 nM.

The compound `CCN1C(=O)C(C)Oc2ccc(C(=O)NC(=N)N)cc21` (stereo not shown) [Example 6, N-amidino-4-ethyl-2-methyl-3-oxo-3,4-dihydro-2H-1,4-benzoxazine-6-carboxamide] came in with an IC50 against Na^+ /H^+ exchange of 290 nM.

`CC[C@H]1Oc2cc(C(=O)NC(=N)N)ccc2N(C(C)C)C1=O` [Example 15, (R)-N-Amidino-2-ethyl-4-(2-propyl)-3-oxo-3,4-dihydro-2H-1,4-benzoxazine-7-carboxamide]: on Na^+ /H^+ exchange, the 50% inhibitory concentration (IC50) was determined as 36 nM.

Source of the values: US5597820A, “1, 4-benzoxazine derivative and pharmaceutical compositions containing the same” (Kanebo, Ltd., priority 1994, dated 1997).
